Assay results as given in the kinase profiling compilation of Christmann-Franck et al. (2016).

Experiments:
Test in all cases: KINOMEscan competition binding
Conditions in all cases: compound 10.0 µM
[1] = biological target: SYK (human) (UniProt P43405)
[2] = test system: KIT (human), P10721 [A829P]
[3] = biological target: EPHA5 (human) (UniProt P54756)
[4] = biological target: ADCK4 (human) (UniProt Q96D53)
[5] = biological target: STK3 (human) (UniProt Q13188)
[6] = biological target: MAP2K6 (human) (UniProt P52564)
Sequence of MAP2K6 (human) (P52564 whole entry, looked up): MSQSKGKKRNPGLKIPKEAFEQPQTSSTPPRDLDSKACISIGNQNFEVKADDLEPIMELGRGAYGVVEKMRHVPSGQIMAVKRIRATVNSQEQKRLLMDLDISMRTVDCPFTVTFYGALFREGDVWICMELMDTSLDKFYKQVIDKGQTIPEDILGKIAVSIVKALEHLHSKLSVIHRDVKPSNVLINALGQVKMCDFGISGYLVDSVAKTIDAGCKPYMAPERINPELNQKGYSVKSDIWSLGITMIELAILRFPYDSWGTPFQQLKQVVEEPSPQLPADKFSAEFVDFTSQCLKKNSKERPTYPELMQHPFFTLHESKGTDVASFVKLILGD

[7] = biological target: CHEK2 (human) (UniProt O96017)
Sequence of CHEK2 (human) (O96017 whole entry, looked up): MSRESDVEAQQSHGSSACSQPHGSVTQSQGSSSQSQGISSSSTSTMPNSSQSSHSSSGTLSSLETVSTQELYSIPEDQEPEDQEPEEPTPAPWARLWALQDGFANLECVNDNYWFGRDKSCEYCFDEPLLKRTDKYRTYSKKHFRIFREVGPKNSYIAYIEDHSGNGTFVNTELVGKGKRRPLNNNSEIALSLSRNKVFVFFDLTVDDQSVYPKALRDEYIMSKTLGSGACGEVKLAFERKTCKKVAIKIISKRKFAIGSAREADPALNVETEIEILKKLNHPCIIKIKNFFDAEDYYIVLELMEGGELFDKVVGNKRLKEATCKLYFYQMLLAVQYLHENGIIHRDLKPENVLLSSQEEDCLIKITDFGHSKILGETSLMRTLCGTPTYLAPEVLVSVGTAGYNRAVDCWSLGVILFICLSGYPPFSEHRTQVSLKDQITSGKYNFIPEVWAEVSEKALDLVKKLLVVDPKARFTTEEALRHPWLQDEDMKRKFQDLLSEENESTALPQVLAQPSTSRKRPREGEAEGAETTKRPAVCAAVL

[8] = biological target: MAPK8 (human) (UniProt P45983)
Sequence of MAPK8 (human) (P45983 whole entry, looked up): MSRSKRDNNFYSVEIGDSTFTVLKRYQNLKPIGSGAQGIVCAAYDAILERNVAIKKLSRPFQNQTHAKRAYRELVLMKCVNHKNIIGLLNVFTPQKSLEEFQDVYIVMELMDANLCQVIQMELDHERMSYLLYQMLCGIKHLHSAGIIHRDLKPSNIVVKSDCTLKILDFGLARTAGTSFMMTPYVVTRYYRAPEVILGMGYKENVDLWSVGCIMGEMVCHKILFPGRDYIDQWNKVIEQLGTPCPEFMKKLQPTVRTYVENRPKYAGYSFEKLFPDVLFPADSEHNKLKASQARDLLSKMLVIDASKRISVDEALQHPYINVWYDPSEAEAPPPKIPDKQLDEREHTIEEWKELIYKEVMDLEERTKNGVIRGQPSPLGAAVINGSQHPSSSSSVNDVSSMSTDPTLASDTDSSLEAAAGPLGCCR

[9] = biological target: SRMS (human) (UniProt Q9H3Y6)
[10] = biological target: KDR (human) (UniProt P35968)
[11] = biological target: PTK2B (human) (UniProt Q14289)
[12] = biological target: RAF1 (human) (UniProt P04049)
[13] = biological target: MAPK4 (human) (UniProt P31152)
Sequence of MAPK4 (human) (P31152 whole entry, looked up): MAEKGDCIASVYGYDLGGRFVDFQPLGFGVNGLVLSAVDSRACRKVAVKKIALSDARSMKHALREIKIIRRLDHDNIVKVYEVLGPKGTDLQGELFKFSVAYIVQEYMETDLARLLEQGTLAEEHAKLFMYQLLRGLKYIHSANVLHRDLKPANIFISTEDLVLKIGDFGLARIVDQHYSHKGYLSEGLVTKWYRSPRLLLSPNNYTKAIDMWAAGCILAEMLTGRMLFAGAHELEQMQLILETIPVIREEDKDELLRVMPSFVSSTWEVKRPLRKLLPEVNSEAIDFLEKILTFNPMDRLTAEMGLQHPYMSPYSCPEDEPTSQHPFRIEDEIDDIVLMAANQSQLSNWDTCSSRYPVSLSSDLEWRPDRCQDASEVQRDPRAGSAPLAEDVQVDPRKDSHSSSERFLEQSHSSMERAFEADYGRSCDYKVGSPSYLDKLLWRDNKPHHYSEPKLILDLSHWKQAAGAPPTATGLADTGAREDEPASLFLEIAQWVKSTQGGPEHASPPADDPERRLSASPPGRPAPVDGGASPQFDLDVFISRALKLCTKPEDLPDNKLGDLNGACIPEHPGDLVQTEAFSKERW

[14] = biological target: HIPK3 (human) (UniProt Q9H422)
Sequence of HIPK3 (human) (Q9H422 whole entry, looked up): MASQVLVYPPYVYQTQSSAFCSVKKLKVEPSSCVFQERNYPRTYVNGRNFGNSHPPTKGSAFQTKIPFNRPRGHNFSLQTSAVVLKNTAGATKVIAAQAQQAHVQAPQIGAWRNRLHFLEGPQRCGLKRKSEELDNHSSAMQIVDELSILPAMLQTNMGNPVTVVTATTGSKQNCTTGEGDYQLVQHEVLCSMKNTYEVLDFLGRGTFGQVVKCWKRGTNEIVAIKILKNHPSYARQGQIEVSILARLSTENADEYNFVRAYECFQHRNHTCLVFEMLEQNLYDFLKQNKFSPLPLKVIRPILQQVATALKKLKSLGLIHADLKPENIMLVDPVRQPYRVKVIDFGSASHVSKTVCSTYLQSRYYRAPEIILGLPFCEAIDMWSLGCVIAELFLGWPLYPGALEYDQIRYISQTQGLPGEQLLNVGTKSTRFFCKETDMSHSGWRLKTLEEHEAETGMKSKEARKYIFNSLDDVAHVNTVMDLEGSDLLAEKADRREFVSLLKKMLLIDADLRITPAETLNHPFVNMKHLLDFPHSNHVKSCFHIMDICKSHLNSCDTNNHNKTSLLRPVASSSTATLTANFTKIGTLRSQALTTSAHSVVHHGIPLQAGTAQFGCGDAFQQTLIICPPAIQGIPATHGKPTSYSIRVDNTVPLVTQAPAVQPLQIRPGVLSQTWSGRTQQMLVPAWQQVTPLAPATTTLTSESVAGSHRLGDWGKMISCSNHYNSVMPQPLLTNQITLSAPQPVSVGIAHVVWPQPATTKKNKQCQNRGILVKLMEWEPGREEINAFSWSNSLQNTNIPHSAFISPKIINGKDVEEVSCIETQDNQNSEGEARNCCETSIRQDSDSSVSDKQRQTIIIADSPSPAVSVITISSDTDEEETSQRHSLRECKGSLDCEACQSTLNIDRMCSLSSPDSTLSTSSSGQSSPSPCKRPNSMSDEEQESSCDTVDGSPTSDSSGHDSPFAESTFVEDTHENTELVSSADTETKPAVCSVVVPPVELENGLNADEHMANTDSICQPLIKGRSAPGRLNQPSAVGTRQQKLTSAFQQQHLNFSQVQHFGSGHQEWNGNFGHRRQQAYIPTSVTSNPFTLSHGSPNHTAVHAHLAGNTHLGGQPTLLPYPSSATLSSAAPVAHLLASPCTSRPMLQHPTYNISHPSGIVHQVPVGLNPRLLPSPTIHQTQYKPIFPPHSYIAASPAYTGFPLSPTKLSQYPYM

[15] = biological target: AXL (human) (UniProt P30530)
[16] = biological target: TLK1 (human) (UniProt Q9UKI8)
[17] = biological target: BMPR1B (human) (UniProt O00238)
[18] = biological target: CSNK2A2 (human) (UniProt P19784)
[19] = biological target: MAP4K5 (human) (UniProt Q9Y4K4)
[20] = biological target: YES1 (human) (UniProt P07947)
Sequence of YES1 (human) (P07947 whole entry, looked up): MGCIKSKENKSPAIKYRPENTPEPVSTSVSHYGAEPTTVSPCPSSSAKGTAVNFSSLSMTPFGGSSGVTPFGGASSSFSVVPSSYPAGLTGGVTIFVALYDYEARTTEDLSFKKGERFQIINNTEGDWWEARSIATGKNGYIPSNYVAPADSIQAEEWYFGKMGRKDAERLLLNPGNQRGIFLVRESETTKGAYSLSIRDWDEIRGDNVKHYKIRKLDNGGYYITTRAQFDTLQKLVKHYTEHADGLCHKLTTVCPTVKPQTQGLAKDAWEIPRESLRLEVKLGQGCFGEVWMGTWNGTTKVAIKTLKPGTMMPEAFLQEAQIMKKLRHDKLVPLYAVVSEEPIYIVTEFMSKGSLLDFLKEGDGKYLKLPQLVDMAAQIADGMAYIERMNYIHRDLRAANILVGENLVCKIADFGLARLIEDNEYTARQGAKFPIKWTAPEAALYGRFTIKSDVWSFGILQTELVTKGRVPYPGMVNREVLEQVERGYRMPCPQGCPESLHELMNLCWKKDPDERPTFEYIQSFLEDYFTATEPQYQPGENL

[21] = biological target: EPHA1 (human) (UniProt P21709)
[22] = biological target: CDC42BPG (human) (UniProt Q6DT37)
[23] = biological target: ROCK1 (human) (UniProt Q13464)
[24] = biological target: CDK19 (human) (UniProt Q9BWU1)
[25] = biological target: VRK2 (human) (UniProt Q86Y07)
[26] = biological target: ACVR2A (human) (UniProt P27037)
[27] = biological target: CDK7 (human) (UniProt P50613)
[28] = biological target: DCLK1 (human) (UniProt O15075)
[29] = biological target: ULK1 (human) (UniProt O75385)
[30] = biological target: ALK (human) (UniProt Q9UM73)
[31] = biological target: WEE1 (human) (UniProt P30291)
Sequence of WEE1 (human) (P30291 whole entry, looked up): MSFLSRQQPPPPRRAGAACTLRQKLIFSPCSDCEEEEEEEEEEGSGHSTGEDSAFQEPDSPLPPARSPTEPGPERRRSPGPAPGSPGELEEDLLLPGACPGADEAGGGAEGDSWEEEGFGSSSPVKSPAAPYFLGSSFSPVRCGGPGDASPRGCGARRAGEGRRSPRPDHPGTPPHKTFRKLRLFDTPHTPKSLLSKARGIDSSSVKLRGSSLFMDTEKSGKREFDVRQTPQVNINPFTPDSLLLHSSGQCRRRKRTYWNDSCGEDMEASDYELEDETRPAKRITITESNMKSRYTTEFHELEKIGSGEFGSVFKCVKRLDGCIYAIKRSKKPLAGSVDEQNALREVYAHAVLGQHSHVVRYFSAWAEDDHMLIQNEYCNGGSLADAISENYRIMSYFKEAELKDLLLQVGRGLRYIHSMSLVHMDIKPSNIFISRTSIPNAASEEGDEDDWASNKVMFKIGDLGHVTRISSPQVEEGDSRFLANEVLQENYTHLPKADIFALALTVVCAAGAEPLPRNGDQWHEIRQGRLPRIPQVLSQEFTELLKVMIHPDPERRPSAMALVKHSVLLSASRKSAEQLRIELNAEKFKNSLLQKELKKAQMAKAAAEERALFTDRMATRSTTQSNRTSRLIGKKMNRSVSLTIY

[32] = biological target: RPS6KA2 KD1 (human) (UniProt Q15349)
[33] = biological target: SRPK2 (human) (UniProt P78362)
[34] = biological target: CAMK2A (human) (UniProt Q9UQM7)
[35] = biological target: EPHA2 (human) (UniProt P29317)
[36] = biological target: PIM1 (human) (UniProt P11309)
[37] = biological target: CAMK2B (human) (UniProt Q13554)
[38] = biological target: MAPK11 (human) (UniProt Q15759)
[39] = biological target: EIF2AK1 (human) (UniProt Q9BQI3)

Sequence of STK3 (human) (Q13188 whole entry, looked up): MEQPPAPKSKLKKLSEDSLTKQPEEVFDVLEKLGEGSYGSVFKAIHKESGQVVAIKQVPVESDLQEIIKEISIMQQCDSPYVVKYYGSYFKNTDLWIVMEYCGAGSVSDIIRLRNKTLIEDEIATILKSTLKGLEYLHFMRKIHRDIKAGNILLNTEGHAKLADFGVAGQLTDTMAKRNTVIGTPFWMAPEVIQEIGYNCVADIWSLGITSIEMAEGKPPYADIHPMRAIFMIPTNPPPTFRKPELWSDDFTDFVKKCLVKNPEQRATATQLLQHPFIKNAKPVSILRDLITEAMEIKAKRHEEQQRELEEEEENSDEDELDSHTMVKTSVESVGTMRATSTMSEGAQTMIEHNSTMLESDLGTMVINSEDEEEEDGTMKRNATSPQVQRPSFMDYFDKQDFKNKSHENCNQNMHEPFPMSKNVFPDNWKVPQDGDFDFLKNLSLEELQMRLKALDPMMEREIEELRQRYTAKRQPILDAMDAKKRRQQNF

CC1=C(C(=O)Nc2cc3cn[nH]c3cc2F)C(c2ccc(C(F)(F)F)cc2)CC(=O)N1 (centres undefined)
kinase still bound, per cent of control [1]: 100%
kinase still bound, per cent of control [2]: 58%
kinase still bound, per cent of control [3]: 86%
kinase still bound, per cent of control [4]: 94%
kinase still bound, per cent of control [5]: 63%
kinase still bound, per cent of control [6]: 95%
kinase still bound, per cent of control [7]: 78%
kinase still bound, per cent of control [8]: 85%
kinase still bound, per cent of control [9]: 58%
kinase still bound, per cent of control [10]: 88%
kinase still bound, per cent of control [11]: 100%
kinase still bound, per cent of control [12]: 100%
kinase still bound, per cent of control [13]: 100%
kinase still bound, per cent of control [14]: 85%
kinase still bound, per cent of control [15]: 84%
kinase still bound, per cent of control [16]: 90%
kinase still bound, per cent of control [17]: 65%
kinase still bound, per cent of control [18]: 86%
kinase still bound, per cent of control [19]: 90%
kinase still bound, per cent of control [20]: 65%
kinase still bound, per cent of control [21]: 77%
kinase still bound, per cent of control [22]: 83%
kinase still bound, per cent of control [23]: 0.3%
kinase still bound, per cent of control [24]: 80%
kinase still bound, per cent of control [25]: 87%
kinase still bound, per cent of control [26]: 88%
kinase still bound, per cent of control [27]: 58%
kinase still bound, per cent of control [28]: 65%
kinase still bound, per cent of control [29]: 74%
kinase still bound, per cent of control [30]: 77%
kinase still bound, per cent of control [31]: 94%
kinase still bound, per cent of control [32]: 95%
kinase still bound, per cent of control [33]: 100%
kinase still bound, per cent of control [34]: 100%
kinase still bound, per cent of control [35]: 84%
kinase still bound, per cent of control [36]: 88%
kinase still bound, per cent of control [37]: 94%
kinase still bound, per cent of control [38]: 92%
kinase still bound, per cent of control [39]: 89%
